Assay results reported in the supplement of paper PMC10307832.

Columns and labels:
Experiment in all cases: relative viability (nuclei count vs DMSO), 5 days (fraction); higher = more cells survive
[1] = compound: COC1=CC=C(C=C1)CN2C=CC3=C2C=C(C=C3)C(=O)NO + N=C(N)NC(=N)NCCc1ccccc1 [Phenformin] (partner 250 µM)
How it was run: (§1)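 Relative viability divides the nuclei count in treated wells by that in vehicle wells. Lung cancer cell lines were seeded in 1536-well plates, dosed by pin tool the next day, and fixed and stained after 5 days in one step with final 0.05% Triton X-100, 1% formaldehyde and 1 ug/ml Hoechst. Dosing was a single drug or a fixed anchor-drug dose plus five library-drug doses (not always all listed) in √10 steps, and values are medians of duplicate plates imaged at 4×.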

Veliparib + Lapatinib = compound: C[C@]1(c2nc3c(C(N)=O)cccc3[nH]2)CCCN1 [Veliparib] + CS(=O)(=O)CCNCc1ccc(-c2ccc3ncnc(Nc4ccc(OCc5cccc(F)c5)c(Cl)c4)c3c2)o1 [Lapatinib] (partner 2 µM)
How it was run: as §1

[2] = compound: COC1=CC=C(C=C1)CN2C=CC3=C2C=C(C=C3)C(=O)NO + O=C(CCCCCCC(=O)Nc1ccccc1)NO [Vorinostat] (partner 1 µM)
How it was run: as §1

Veliparib + Vorinostat = compound: C[C@]1(c2nc3c(C(N)=O)cccc3[nH]2)CCCN1 [Veliparib] + O=C(CCCCCCC(=O)Nc1ccccc1)NO [Vorinostat] (partner 1 µM)
How it was run: as §1

| Cell Line | relative viability ([1]; first compound 0.08 µM) | relative viability ([1]; first compound 0.253 µM) | relative viability ([1]; first compound 0.8 µM) | relative viability ([1]; first compound 2.53 µM) | relative viability ([1]; first compound 8 µM) | relative viability (Veliparib + Lapatinib; first compound 0.02 µM) | relative viability (Veliparib + Lapatinib; first compound 0.06325 µM) | relative viability (Veliparib + Lapatinib; first compound 0.2 µM) | relative viability (Veliparib + Lapatinib; first compound 0.6325 µM) | relative viability (Veliparib + Lapatinib; first compound 2 µM) | relative viability ([2]; first compound 0.08 µM) | relative viability ([2]; first compound 0.253 µM) | relative viability ([2]; first compound 0.8 µM) | relative viability ([2]; first compound 2.53 µM) | relative viability ([2]; first compound 8 µM) | relative viability (Veliparib + Vorinostat; first compound 0.02 µM) | relative viability (Veliparib + Vorinostat; first compound 0.06325 µM) | relative viability (Veliparib + Vorinostat; first compound 0.2 µM) | relative viability (Veliparib + Vorinostat; first compound 0.6325 µM) | relative viability (Veliparib + Vorinostat; first compound 2 µM) |
| --- | --- | --- | --- | --- | --- | --- | --- | --- | --- | --- | --- | --- | --- | --- | --- | --- | --- | --- | --- | --- |
| NCI-H596 | 0.774 | 0.99 | 0.769 | 0.655 | 0.666 | 1.14 | 0.902 | 1.01 | 1.19 | 1.01 | 0.587 | 0.536 | 0.589 | 0.708 | 0.778 | 0.659 | 0.55 | 0.498 | 0.624 | 0.55 |
| HCC-15 | 0.344 | 0.515 | 0.486 | 0.483 | 0.408 | 0.706 | 0.893 | 0.779 | 0.849 | 0.891 | 0.544 | 0.951 | 0.828 | 0.926 | 0.754 | 0.838 | 0.927 | 0.862 | 0.803 | 0.757 |
| NCI-H2405 | 0.327 | 0.431 | 0.39 | 0.416 | 0.365 | – | 0.941 | 1.09 | 1.14 | 1.26 | 0.782 | – | 0.984 | 1.03 | 0.896 | 0.812 | – | 1.01 | 1.12 | 1.09 |
| ABC-1 | – | 0.216 | 0.246 | 0.296 | 0.234 | – | 1.17 | 1.18 | 0.878 | 1.1 | – | 0.517 | 1.13 | 0.973 | 1.02 | – | – | 0.979 | 1.37 | 0.875 |
| NCI-H2126 | 0.516 | 0.52 | 0.544 | 0.584 | 0.517 | 0.797 | 0.687 | 0.726 | 0.775 | 0.729 | 0.79 | 0.815 | 0.812 | 0.807 | 0.702 | 0.811 | 0.777 | 0.893 | 0.785 | 0.803 |
| NCI-H838 | – | 0.589 | 0.6 | 0.628 | 0.456 | 1.12 | 0.842 | 0.902 | 0.847 | 0.979 | 0.285 | 0.614 | 0.75 | 0.771 | 0.737 | 0.792 | 0.692 | 0.71 | 0.652 | 0.725 |
| EPLC-272H | 0.265 | – | 0.329 | 0.318 | 0.333 | – | 0.71 | 0.988 | 1.1 | 0.877 | – | 0.619 | 0.55 | 0.404 | 0.3 | – | 0.457 | 0.424 | 0.518 | 0.474 |
| NCI-H1975 | 0.442 | 0.417 | 0.431 | 0.407 | 0.399 | 0.843 | 0.765 | 0.831 | 0.873 | 0.911 | 0.676 | 0.779 | 0.752 | 0.74 | 0.701 | 0.771 | 0.688 | 0.698 | 0.639 | 0.659 |
| NCI-H3122 | – | 0.324 | 0.393 | 0.382 | 0.337 | 0.931 | 1.05 | 0.995 | 0.994 | 1.07 | 0.752 | 1.08 | 1.01 | 1.17 | 0.982 | 0.906 | 1.05 | 0.972 | 0.929 | 1.07 |
